# Measured values: patent US20100311677A1, “Active Ingredient Combinations Having Insecticidal and Acaricidal Properties” (Bayer CropScience AG, priority 2007, published 2010)
# Read-outs that look alike come from different tables or passages of the source.
# Legend:
# [1] = test system: Myzus persicae; assay: Myzus persicae test (Example C), sprayed cabbage leaves; type: in vivo; conditions: for pest or weed control at 4 g/ha / pest or weed control at 0.16 g/ha / pest or weed control at 0.8 g/ha / pest or weed control at 0.032 g/ha: Myzus persicae, 144 h, read-out: Kill in % after 6d
# [2] = test system: Spodoptera frugiperda; assay: Spodoptera frugiperda larvae test (Example F), sprayed cabbage leaves; type: in vivo
# From the text: Spodoptera frugiperda Larvae Test
# [3] = test system: Tetranychus urticae; assay: Tetranychus urticae test (OP-resistant/spray treatment) (Example G), bean leaf disks; type: in vivo; conditions: for pest or weed control at 20 g/ha / pest or weed control at 0.8 g/ha / pest or weed control at 4 g/ha / pest or weed control at 100 g/ha: Tetranychus urticae, foliar, 144 h, read-out: Kill in % after 6 d; for Kill in % after 2d: alone
# Experimental: Tetranychus urticae Test (OP-Resistant/Spray Treatment)
# After the desired period of time, the activity in % is determined.
# [4] = test system: Phaedon cochleariae; assay: Phaedon cochleariae larvae test (Example E), sprayed cabbage leaves; conditions: for Kill in % after 2d / Kill in % after 6d: alone; for pest or weed control at 0.8 g/ha / pest or weed control at 20 g/ha / pest or weed control at 4 g/ha / pest or weed control at 100 g/ha / pest or weed control at 0.16 g/ha: Phaedon cochleariae, in Brassica oleracea, 144 h, read-out: Kill in % after 6d
# [5] = test system: Bemisia tabaci; assay: Bemisia tabaci test (Example B), sprayed cotton leaves, larval stages; type: in vivo; conditions: 4 g/ha, alone
# [6] = test system: Nilaparvata lugens; assay: Nilaparvata lugens test (Example D), sprayed rice plants; type: in vivo; conditions: 0.8 g/ha, alone
# [7] = test system: Aphis gossypii; assay: Aphis gossypii test (Example A), sprayed cotton leaves; type: in vivo; conditions: 0.16 ppm, alone
# [8] = active compound alone, 20 g/ha, after 6 d
# [9] = active compound alone, after 6 d
# [10] = Spodoptera frugiperda, 144 h, 0.8 g/ha, alone, after 6 d, read-out: Kill in % after 6d
# [11] = active compound alone, 4 g/ha, after 6 d
# [12] = Spodoptera frugiperda, 144 h, alone, after 6 d, read-out: Kill in % after 6d
molecule,measurement,setting,value
"COP(N)(=O)SC (stereo not drawn) [methamidophos (113), methamidophos]",pest or weed control at 4 g/ha,"[1]; 4 g/ha, alone, after 6 d",0%
same,Kill in % after 2d,"[2]; 100 g/ha, alone",67%
same,pest or weed control at 20 g/ha,[3]; [8],0%
same,Kill in % after 2d,[4]; 100 g/ha,0%
"Cc1cc(C(F)(C(F)(F)F)C(F)(F)F)ccc1NC(=O)c1cccc(I)c1C(=O)NC(C)(C)CS(C)(=O)=O [flubendiamide (54), flubendiamide]",Kill in % after 6d,"[1]; 0.8 g/ha, alone, after 6 d",0%
same,Kill in % after 6d,"[2]; 0.8 g/ha, alone, after 6 d",0%
same,Kill in % after 6d,[3]; [8],0%
same,Kill in % after 6d,[4]; 20 g/ha,0%
"CC1(C)C(C=C(Cl)Cl)C1C(=O)OC(C#N)c1ccc(F)c(Oc2ccccc2)c1 (stereo not drawn) [beta-cyfluthrin (3), betacyfluthrin]",pest or weed control at 0.16 g/ha,"[1]; 0.16 g/ha, alone, after 6 d",0%
same,pest or weed control at 0.8 g/ha,[3]; [9],0%
same,pest or weed control at 0.8 g/ha,[4],17%
"CC(C)c1cc(Oc2ccccc2)cc(C(C)C)c1NC(=S)NC(C)(C)C [diafenthiuron (76), diafenthiuron]",pest or weed control at 0.8 g/ha,"[1]; 0.8 g/ha, alone, after 6 d",0%
same,pest or weed control at 0.8 g/ha,[3]; [9],30%
same,pest or weed control at 20 g/ha,[4],0%
Cc1cc(C(F)(C(F)(F)F)C(F)(F)F)ccc1NC(=O)c1cccc(Cl)c1C(=O)N[C@@H](C)CS(C)(=O)=O [compound (55)],pest or weed control at 0.16 g/ha,"[1]; 0.16 g/ha, alone, after 6 d",0%
same,pest or weed control at 0.8 g/ha,[2]; [10],50%
same,pest or weed control at 4 g/ha,[3]; [11],0%
same,pest or weed control at 0.8 g/ha,[4],0%
"C/C(=N\C#N)N(C)Cc1ccc(Cl)nc1 [acetamiprid (25), acetamiprid]",pest or weed control at 0.16 g/ha,"[1]; 0.16 g/ha, alone, after 6 d",0%
same,pest or weed control at 0.8 g/ha,[3]; [9],0%
same,pest or weed control at 0.8 g/ha,[4],0%
"O=C(NC(=O)c1c(F)cccc1F)Nc1ccc(Oc2ccc(C(F)(F)F)cc2Cl)cc1F [flufenoxuron (38), flufenoxuron]",pest or weed control at 20 g/ha,[3]; [8],0%
same,pest or weed control at 4 g/ha,[4],0%
"O=C(NC(=O)c1ccccc1Cl)Nc1ccc(OC(F)(F)F)cc1 [triflumuron (36), triflumuron]",pest or weed control at 4 g/ha,"[1]; 4 g/ha, alone, after 6 d",0%
same,pest or weed control at 0.16 g/ha,"[2]; Spodoptera frugiperda, 144 h, 0.16 g/ha, alone, after 6 d, read-out: Kill in % after 6d",0%
same,pest or weed control at 20 g/ha,[3]; [8],0%
same,Kill in % after 2d,[4]; 20 g/ha,17%
spinosad [spinosad (79)],Kill in % after 6d,"[1]; 0.8 g/ha, alone, after 6 d",0%
same,Kill in % after 2d,"[2]; 0.8 g/ha, alone",0%
same,Kill in % after 6d,[3]; [11],80%
same,Kill in % after 6d,[4]; 0.8 g/ha,0%
"Cc1c(COC(=O)C2C(/C=C(\Cl)C(F)(F)F)C2(C)C)cccc1-c1ccccc1 (stereo not drawn) [bifenthrin (18), bifenthrin]",pest or weed control at 0.8 g/ha,[2]; [10],0%
"N#C/N=C1\SCCN1Cc1ccc(Cl)nc1 [thiacloprid (28), thiacloprid]",pest or weed control at 0.032 g/ha,"[1]; alone, after 6 d",0%
same,pest or weed control at 0.8 g/ha,[3]; [9],0%
same,Kill in % after 2d,[4]; 4 g/ha,0%
pyridaben [pyridaben (66)],Kill in % after 6d,"[1]; 0.8 g/ha, alone, after 6 d",0%
same,Kill in % after 2d,[4]; 20 g/ha,33%
"CC1(C)C(C=C(Cl)Cl)C1C(=O)OC(C#N)c1cccc(Oc2ccccc2)c1 (stereo not drawn) [cypermethrin (5), cypermethrin]",pest or weed control at 0.8 g/ha,[2]; [10],17%
same,pest or weed control at 4 g/ha,[3]; [11],0%
same,pest or weed control at 4 g/ha,[4],67%
"CCC(C)(C)C(=O)OC1=C(c2ccc(Cl)cc2Cl)C(=O)OC12CCCCC2 [spirodiclofen (96), spirodiclofen]",pest or weed control at 0.8 g/ha,"[1]; 0.8 g/ha, alone, after 6 d",0%
same,pest or weed control at 100 g/ha,[4],0%
"CC(C)N1C(=O)N(c2ccccc2)CS/C1=N\C(C)(C)C [buprofezin (42), buprofezin]",Kill in % after 10d,[5],30%
same,Kill in % after 1d,"[1]; 4 g/ha, alone",0%
same,Kill in % after 6d,[6],10%
same,Kill in % after 2d,[3]; 100 g/ha,0%
same,pest or weed control at 100 g/ha,[4],0%
"CC1(C)C(C=C(Cl)Cl)C1C(=O)OC(C#N)c1cccc(Oc2ccccc2)c1 (stereo not drawn) [alpha-cypermethrin (2), alpha-cypermethrin]",pest or weed control at 0.16 g/ha,"[1]; 0.16 g/ha, alone, after 6 d",0%
same,Kill in % after 2d,"[2]; 0.8 g/ha, alone",33%
same,pest or weed control at 0.8 g/ha,[3]; [9],0%
same,pest or weed control at 0.8 g/ha,[4],0%
"O=S1OCC2C(CO1)C1(Cl)C(Cl)=C(Cl)C2(Cl)C1(Cl)Cl (stereo not drawn) [endosulfan (49), endosulfan]",pest or weed control at 4 g/ha,"[1]; 4 g/ha, alone, after 6 d",0%
same,Kill in % after 2d,[3]; 100 g/ha,0%
same,pest or weed control at 20 g/ha,[4],33%
"CC1(C)C(C=C(Br)Br)C1C(=O)OC(C#N)c1cccc(Oc2ccccc2)c1 (stereo not drawn) [deltamethrin (6), deltamethrin]",Kill in % after 1d,"[1]; 0.16 g/ha, alone",40%
same,pest or weed control at 0.8 g/ha,[3]; [9],0%
same,pest or weed control at 0.8 g/ha,[4],50%
"CNC(=O)c1cc(C#N)cc(C)c1NC(=O)c1cc(Br)nn1-c1ncccc1Cl [Cyazypyr (57), Cyazypyr]",Kill in % after 1d,"[1]; 4 g/ha, alone",5%
same,pest or weed control at 0.16 g/ha,[4],0%
"CC1(C)[C@H](/C=C(\Cl)C(F)(F)F)[C@@H]1C(=O)O[C@H](C#N)c1cccc(Oc2ccccc2)c1 [gamma-cyhalothrin (12b), gamma-cyhalothrin]",Kill in % after 6d,[7],0%
same,Kill in % after 2d,"[2]; 0.032 g/ha, alone",5%
"CC1=NNC(=O)N(/N=C/c2cccnc2)C1 [pymetrozine (88), pymetrozine]",Kill in % after 1d,"[1]; 20 g/ha, alone",20%
same,pest or weed control at 20 g/ha,[3]; [8],0%
same,pest or weed control at 100 g/ha,[4],0%
"COC(=O)N(C(=O)N1COC2(C(=O)OC)Cc3cc(Cl)ccc3C2=N1)c1ccc(OC(F)(F)F)cc1 (stereo not drawn) [indoxacarb (94), indoxacarb]",pest or weed control at 4 g/ha,"[1]; 4 g/ha, alone, after 6 d",0%
same,pest or weed control at 4 g/ha,[2]; [12],0%
same,pest or weed control at 100 g/ha,"[3]; active compound alone, 100 g/ha, after 6 d",0%
"CS/C(C)=N/OC(=O)N(C)SN(C)C(=O)O/N=C(\C)SC [thiodicarb (111), thiodicarb]",pest or weed control at 4 g/ha,[2]; [12],67%
same,pest or weed control at 20 g/ha,[3]; [8],0%
same,pest or weed control at 100 g/ha,[4],0%
"CCOC(=O)OC1=C(c2cc(C)ccc2C)C(=O)N[C@]12CC[C@@H](OC)CC2 [spirotetramat (98), spirotetramat]",pest or weed control at 20 g/ha,"[2]; Spodoptera frugiperda, 144 h, 20 g/ha, alone, after 6 d, read-out: Kill in % after 6d",0%
same,pest or weed control at 4 g/ha,[3]; [11],50%
same,pest or weed control at 20 g/ha,[4],50%
"O=C(NC(=O)c1c(F)cccc1F)Nc1cc(Cl)c(OC(F)(F)C(F)C(F)(F)F)cc1Cl (stereo not drawn) [lufenuron (34), lufenuron]",pest or weed control at 0.8 g/ha,"[1]; 0.8 g/ha, alone, after 6 d",0%
same,Kill in % after 2d,"[2]; 100 g/ha, alone",0%
same,pest or weed control at 20 g/ha,[3]; [8],0%
"CC(COc1ccc(Oc2ccccc2)cc1)Oc1ccccn1 (stereo not drawn) [pyriproxifen (90), pyriproxyfen]",pest or weed control at 0.8 g/ha,"[1]; 0.8 g/ha, alone, after 6 d",0%
same,pest or weed control at 20 g/ha,[3]; [8],0%
same,pest or weed control at 100 g/ha,[4],0%
"Nc1nc(N)nc(NC2CC2)n1 [cyromazine (43), cyromazine]",pest or weed control at 0.8 g/ha,"[1]; 0.8 g/ha, alone, after 6 d",0%
same,pest or weed control at 20 g/ha,[3]; [8],0%
same,pest or weed control at 100 g/ha,[4],0%
"CC1(C)C(/C=C(\Cl)C(F)(F)F)C1C(=O)OC(C#N)c1cccc(Oc2ccccc2)c1 [L-cyhalothrin (12a), lambda-cyhalothrin]",pest or weed control at 0.032 g/ha,"[1]; alone, after 6 d",0%
same,pest or weed control at 4 g/ha,[2]; [12],50%
same,pest or weed control at 0.16 g/ha,[4],0%
"Cc1ccc(/N=C/N(C)/C=N/c2ccc(C)cc2C)c(C)c1 [amitraz (86), amitraz]",pest or weed control at 0.8 g/ha,"[1]; 0.8 g/ha, alone, after 6 d",0%
same,Kill in % after 2d,[3]; 4 g/ha,0%
same,pest or weed control at 100 g/ha,[4],0%
"O=C(NC(=O)c1c(F)cccc1F)Nc1ccc(OC(F)(F)C(F)OC(F)(F)F)c(Cl)c1 (stereo not drawn) [novaluron (37), novaluron]",pest or weed control at 4 g/ha,[4],83%
"CC(C)C(C(=O)OC(C#N)c1cccc(Oc2ccccc2)c1)c1ccc(Cl)cc1 (stereo not drawn) [esfenvalerate (7), esfenvalerate]",Kill in % after 1d,"[1]; 0.16 g/ha, alone",0%
same,pest or weed control at 0.8 g/ha,[3]; [9],0%
same,pest or weed control at 4 g/ha,[4],83%
"COP(=O)(NC(C)=O)SC (stereo not drawn) [acephate (112), acephate]",pest or weed control at 0.8 g/ha,[1],0%
same,pest or weed control at 20 g/ha,"[2]; Spodoptera frugiperda, 144 h, read-out: Kill in % after 6d",33%
same,pest or weed control at 100 g/ha,[3],0%
"CNC(=O)Oc1cc(C)c(SC)c(C)c1 [methiocarb (110), methiocarb]",pest or weed control at 4 g/ha,[4],0%
